Here are results for twelve molecules from US8163793B2, “Proline derivatives” (Hoffman-La Roche Inc., priority 2009, dated 2012).

Structures can show the parent of a compound that is named as a salt.

One assay deals with Cathepsin S (UniProt P25774). The assay can be described thus: Cathepsin enzyme inhibition assay (fluorogenic peptide substrate Z-Val-Val-Arg-AMC), Cathepsin S. In kind it is biochemical, human and mouse. Conditions: enzyme 1 nM, substrate 20 μM, pH 6.5; read-out: CatS IC50. The procedure, abridged:
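Compounds were combined with 1 nM human or mouse enzyme, and substrate then started the reaction. The buffer was potassium phosphate (100 mM, pH 6.5) containing EDTA-Na 5 mM, Triton X-100 0.001% and […] 5 mM.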

For the next assay, the target named is Cat L (UniProt P07711). Nature of the assay: Cathepsin enzyme inhibition assay (fluorogenic peptide substrate Z-Val-Val-Arg-AMC), Cathepsin L. In kind it is biochemical, human and mouse. The following applies: enzyme 1 nM, substrate 20 μM, pH 6.5; read-out: CatL IC50. The procedure, abridged: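 Fluorogenic cleavage of Z-Val-Val-Arg-AMC (20 μM) by 1 nM Cat L was monitored at ex 360/em 465 nm for 20 min, the linear phase. The buffer was 100 mM potassium phosphate pH 6.5 with 5 mM EDTA and DTT. IC50 values were derived by standard methods, in μM.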

As usually defined, the IC50 is the midpoint of a concentration-inhibition curve. For `CC(C)(C#N)NC(=O)[C@@H]1C[C@@H](S(=O)(=O)c2ccccc2Cl)CN1` [Example 44, (2S,4R)-4-(2-Chloro-benzenesulfonyl)-pyrrolidine-2-carboxylic acid (cyano-dimethyl-methyl)-amide Hydrochloride], the IC50 was 152 nM at Cathepsin S and not below 25000 nM on Cat L.

Take `N#CC1(NC(=O)[C@@H]2C[C@@H](S(=O)(=O)c3ccccc3Cl)CN2)CCC1` [Example 45, (2S,4R)-4-(2-Chloro-benzenesulfonyl)-pyrrolidine-2-carboxylic acid (1-cyano-cyclobutyl)-amide Hydrochloride]: the results for the IC50 on Cathepsin S and on Cat L were 378 nM and not below 25000 nM, respectively.

Take `N#CC1(NC(=O)[C@@H]2C[C@@H](S(=O)(=O)c3ccccc3Cl)CN2)CCCCC1` [Example 46, (2S,4R)-4-(2-Chloro-benzenesulfonyl)-pyrrolidine-2-carboxylic acid (1-cyano-cyclohexyl)-amide Hydrochloride]: the IC50 is 208 nM on Cathepsin S and not below 25000 nM on Cat L.

Regarding `CC(C#N)(NC(=O)[C@@H]1C[C@@H](S(=O)(=O)c2ccccc2Cl)CN1)c1ccccc1` (stereo partly drawn) [Example 48, (2S,4R)-4-(2-Chloro-benzenesulfonyl)-pyrrolidine-2-carboxylic acid (cyano-methyl-phenyl-methyl)-amide Hydrochloride], the half-inhibitory concentration (IC50) on Cathepsin S is 235 nM; at Cat L, not below 25000 nM.

Regarding `Cc1ccc(S(=O)(=O)[C@H]2CN[C@H](C(=O)NC3(C#N)CC3)C2)c(C)c1` [Example 49, (2S,4R)-4-(2,4-Dimethyl-benzenesulfonyl)-pyrrolidine-2-carboxylic acid (1-cyano-cyclopropyl)-amide Hydrochloride], the results for the IC50 on Cathepsin S and at Cat L were 1.8 nM and 6920 nM, respectively.

As to `Cc1cc(Cl)ccc1S(=O)(=O)[C@H]1CN[C@H](C(=O)NC2(C#N)CC2)C1` [Example 50, (2S,4R)-4-(4-Chloro-2-methyl-benzenesulfonyl)-pyrrolidine-2-carboxylic acid (1-cyano-cyclopropyl)-amide Hydrochloride], the concentration for half-maximal inhibition (IC50) on Cathepsin S was 4.4 nM; on Cat L, 8770 nM.

With `N#CC1(NC(=O)[C@@H]2C[C@@H](S(=O)(=O)c3cccc(Cl)c3Cl)CN2)CC1` [Example 51, (2S,4R)-4-(2,3-Dichloro-benzenesulfonyl)-pyrrolidine-2-carboxylic acid (1-cyano-cyclopropyl)-amide Hydrochloride], the IC50 is 26 nM at Cathepsin S and not below 25000 nM at Cat L.

In the case of `N#CCNC(=O)[C@@H]1C[C@@H](S(=O)(=O)c2ccccc2)CN1C(=O)c1ccccc1` [Example 52, (2S,4R)-4-Benzenesulfonyl-1-benzoyl-pyrrolidine-2-carboxylic acid cyanomethyl-amide], the 50% inhibitory concentration (IC50) was 14 nM at Cathepsin S and not below 25000 nM at Cat L.

For the molecule `N#CCNC(=O)[C@@H]1C[C@@H](S(=O)(=O)c2ccccc2)CN1C(=O)C1CCCCC1` [Example 53, (2S,4R)-4-Benzenesulfonyl-1-cyclohexanecarbonyl-pyrrolidine-2-carboxylic acid cyanomethyl-amide], the results for the 50% inhibitory concentration (IC50) at Cathepsin S and at Cat L were 5.2 nM and not below 25000 nM, respectively.

As to `N#CCNC(=O)[C@@H]1C[C@@H](S(=O)(=O)c2ccccc2)CN1Cc1ccccc1` [Example 54, (2S,4R)-4-Benzenesulfonyl-1-benzyl-pyrrolidine-2-carboxylic acid cyanomethyl-amide], the IC50 on Cathepsin S worked out at 210 nM; on Cat L, 5340 nM.

For `N#CCNC(=O)[C@@H]1C[C@@H](S(=O)(=O)c2ccccc2)CN1CC1CCCCC1` [Example 55, (2S,4R)-4-Benzenesulfonyl-1-cyclohexylmethyl-pyrrolidine-2-carboxylic acid cyanomethyl-amide], the IC50 was 14.8 nM at Cathepsin S and not below 25000 nM at Cat L.

Take `N#CCNC(=O)[C@@H]1C[C@@H](S(=O)(=O)c2ccccc2)CN1C(c1ccccc1)C(F)(F)F` (stereo partly drawn) [Example 56, (2S,4R)-4-Benzenesulfonyl-1-(2,2,2-trifluoro-1-phenyl-ethyl)-pyrrolidine-2-carboxylic acid cyanomethyl-amide]: the concentration for half-maximal inhibition (IC50) at Cathepsin S was 42.7 nM; on Cat L it was not below 25000 nM.
